Results: paper PMC9698730 (Molecules, 2022)
Entries after “also recorded” stand apart in the source; their conditions may differ.

How the values were obtained:
Assay type in all cases: binding, SARS-CoV-2
R149A = system: R149A
NTD mutants = system: NTD mutants
H145A = system: H145A
R88A = system: R88A

Molecule	Mutations SPR (% Inhibition/NTD wt) (R149A)	effect of NTD mutations on SPR signal, in words (NTD mutants)	Mutations SPR (% Inhibition/NTD wt) (H145A)	Mutations SPR (% Inhibition/NTD wt) (R88A)
Dihydrofolate [DHF]	H145 (96%), R149 (83%)	Mutations H145A and R149A strongly reduced the signal; also recorded: strong effects of the mutations R92A, Y111A and R88A	H145 (96%), R149 (83%)	–
COc1ccc2cc([C@H](C)C(=O)O)ccc2c1 [Naproxen, naproxen]	R88 (55%), R149 (44%)	–	–	R88 (55%), R149 (44%)
RPKPQQF-OH [Substance P (1-7), Substance P (1-7) RPKPQQF-OH]	–	relatively small effects of the mutations with notable exceptions of W52A and Y111A	–	–
